Key:
[1] = system: A549 cells; experiment: NPM1 relocalization; format: cell-based; settings: for NPM1 redistribution: free ligand alone, Figures S2 and S3
[2] = system: DNA damage; experiment: DNA damage in treated cells; format: cell-based; settings: early time points, unpublished data from the authors' lab
[3] = system: A549 cells; experiment: 24 h IC50; format: cell-based; settings: read-out: 24 h IC50 value, Table S1
[4] = water/octanol partition coefficient; format: physicochemical
[5] = A549 cells, 24 h treatment, 10 μM

Pentaplatin [compound 9]
NPM1 redistribution / nucleolar stress induction [1, 5]: found to induce nucleolar stress
coefficient of variation (CV) of NPM1 intensity [1, 5]: slightly higher resultant CV than positive controls or oxaliplatin

O=C1[O][Pt]2([NH][C@@H]3CCCC[C@H]3[NH]2)[O]C1=O [compound 2, oxaliplatin, reference compound]
DNA damage relative to NPM1 relocation [2]: no such damage occurs prior to observed NPM1 distribution
NPM1 redistribution / nucleolar stress induction [1, 5]: induces robust redistribution of NPM1
NPM1 redistribution / nucleolar stress induction ([1]; A549 cells, 24 h treatment, 10 μM, listed as Oxaliplatin): robust NPM1 relocalization
IC50 [3]: 81.5 µM

NC1CCCCC1N.[Cl][Pt][Cl] (stereo not drawn) [compound 4, DACHPt]
NPM1 redistribution / nucleolar stress induction [1, 5]: induces robust nucleolar stress
relative hydrophobicity (water/octanol partition coefficient, log P) [4]: more hydrophobic than the simpler diam(m)ine compounds

N.N.O=C([O-])C(=O)[O-].[Pt+2] [compound 5, DOAP]
NPM1 redistribution / nucleolar stress induction [1, 5]: does not induce stress

NC1CCCCC1N (stereo not drawn) [DACH ligand, diaminocyclohexane, reference compound]
NPM1 redistribution [1]: no influence on NPM1 redistribution

[NH2][Pt]1([NH2])[O]C(=O)C2(CCC2)C(=O)[O]1 [compound 3, carboplatin, reference compound]
NPM1 redistribution / nucleolar stress induction [1, 5]: more closely resembles that of the no-treatment control

O=C(O)C(=O)O [oxalic acid ligand, oxalic acid, reference compound]
NPM1 redistribution [1]: no influence on NPM1 redistribution

N.N.[Cl][Pt][Cl] [compound 1, cisplatin, reference compound]
DNA damage relative to NPM1 relocation [2]: DNA damage occurs at early time points
NPM1 redistribution / nucleolar stress induction [1, 5]: more closely resembles that of the no-treatment control
NPM1 redistribution / nucleolar stress induction ([1]; A549 cells, 24 h treatment, 10 μM, listed as cisplatin): a small amount of NPM1 redistribution was observed

From paper PMC7735645 (Journal of the American Chemical Society, 2019)
